Source: ChEMBL document CHEMBL6127148, “Discovery of l-Lysine Dioxalate (LH1513) as a Novel Inhibitor of Calcium Oxalate Crystallization for Hyperoxaluria” (ACS Med Chem Lett, 2024)
Active and inactive are the calls of the source. The calls are words filed in the database; no cut-off is given here.

What was measured:
Calcium oxalate [1] = assay: Inhibition of calcium oxalate crystallization in supersaturated solution of CaOx containing of 250 uM of CaCl2 and 250 uM of Na2C2O4 incubated for 72 hrs at pH 6.8 HEPES buffer by fluorescence-based assay
Calcium oxalate [2] = assay: Inhibition of calcium oxalate crystallization in supersaturated solution of CaOx containing of 1 mM of CaCl2 and 250 uM of Na2C2O4 incubated for 72 hrs at pH 6.8 HEPES buffer by spectrophotometric method
Calcium oxalate [3] = assay: Inhibition of calcium oxalate crystallization in COM (010) face assessed as growth on the (121-) steps at EC50 concentration incubated for 20 min by atomic force microscopic analysis
Calcium oxalate [4] = assay: Inhibition of calcium oxalate crystallization in COM (100) face assessed as twinned with monoclinic morphology at EC50 concentration by scanning electron microscopic analysis
[5] = Oral bioavailability in Agxt-knockout C57BL/6 mouse assessed as LH1513 level in plasma at 150 micromol/kg administered as triester prodrug and measured after 4 hrs; type: ADME, organism-based; details: in vivo, at 150 µmol/kg
[6] = Drug metabolism in Agxt-knockout C57BL/6 mouse assessed as LH1513 concentration in urine at 150 micromol/kg, po administered as triester prodrug and measured after 8 hrs; type: ADME, organism-based; details: in vivo, dose 150 µmol/kg, read-out: Ct
Mus musculus = assay: Anti-hyperoxaluria Agxt-knockout C57BL/6 mouse model of hyperoxaluria assessed as decrease in CaOx crystals in urine at 150 micromol/kg, po administered as triester prodrug for 6 weeks by light microscopic analysis; type: functional, organism-based; details: dose 150.0 µmol/kg
[7] = Drug excretion in Agxt-knockout C57BL/6 mouse urine at 150 micromol/kg, po measured after 8 hrs; type: ADME, organism-based; details: in vivo, dose 150 µmol/kg
Calcium oxalate [8] = assay: Inhibition of calcium oxalate crystallization in COM (100) face assessed as platy morphology at EC50 concentration by scanning electron microscopic analysis
Calcium oxalate [9] = assay: Inhibition of calcium oxalate crystallization in COM (100) face assessed as crystals flattened at the apexes at EC50 concentration by scanning electron microscopic analysis

Compound | EC50 (Calcium oxalate [1]) [µM] | EC50 (Calcium oxalate [2]) [µM] | further results
O=C(O)C(=O)NCCNC(=O)C(=O)O | 37.9 |  | 
CC(=O)C(=O)O [PYRUVATE SODIUM] | 98.3 | 386 | 
O=C([O-])C(=O)NCCCC[C@H](NC(=O)C(=O)[O-])C(=O)[O-].[Na+].[Na+].[Na+] | 21.7 | 63.8 | inhibition (Calcium oxalate [3]): Active; inhibition (Calcium oxalate [4]): Active; F [5]: 3%; concentration [6]: ~30 µM; Activity (Mus musculus): Active; Drug excretion [7]: Active
NCCNC(=O)C(=O)O | 112 |  | 
O=C([O-])CC(O)(CC(=O)[O-])C(=O)[O-].[Na+].[Na+].[Na+] [SODIUM CITRATE] | 2500 | 665 | inhibition (Calcium oxalate [8]): Active; inhibition (Calcium oxalate [9]): Active
